According to US10058582B2, “Therapeutic molecules and deviates for CRC” (ANTARTINA LLC, priority 2015, dated 2018):

Assays:
[1] = test system: tumor-infiltrating CD4+ and CD8+ T cells; assay: Flow cytometry of tumor-infiltrating T lymphocytes; format: in vivo, BALB/c mice; settings: day 18, p<0.05
Description: previously, single cell suspensions were obtained by mechanical disruption of tumor samples treated with 0.5 mg/ml Collagenase I at 37° C. for 45 min and washed with PBS 1% bovine serum albumin. Then, tumor cells were stained with PECy5-anti-CD4 (BD Biosciences) and AlexaFluor488-anti-CD8 (BD Biosciences) and their respective isotypes and subjected to flow cytometry (FACSAria, BD). Data were analyzed using Cyflogic v. 1.2.1 software.

[2] = test system: hepatocellular carcinoma; assay: Hepatocellular carcinoma in mice with advanced fibrosis (preliminary, data not shown); format: in vivo
[3] = test system: CT26 cells injected into the liver; assay: Liver metastatic CRC model; format: in vivo, BALB/c mice
Description: BALB/c mice received an intra-hepatic inoculation of 5×10^5 CT26 cells (day 0). The mice were distributed in experimental groups and treated with saline (control group, n=6); Antartina (5 mg/kg i.p., n=8 day 8). At day 18, animals were sacrificed and the volume of metastatic nodules was measured with caliper.

[4] = test system: CT26 CRC cells; assay: Long-term protection study (re-challenge); format: in vivo, BALB/c mice; settings: 3 weeks after complete tumor regression, 5×10^5 cells left flank
Description: to evaluate protective immunity, animals that were free of disease at 3 wk after complete regression of primary tumors (7 week after first tumor inoculation) were challenged with 5×10^5 CT26 cells on the left flank.

[5] = test system: CT26 cells; assay: CTL cytotoxicity assay (LDH release), CT26 targets; format: cell-based, mouse; settings: splenocytes of treated cured mice, p<0.001
Description: (§1) viable splenocytes from control or treated mice (10×10^6) were stimulated in vitro with mitomycin C-treated CT26 cells (10×10^5 cells/well in 24-well-plates). On day 5, cells were harvested and washed, adjusted to 2×10^6/mL, and added to 96-well-plate (effector cells). To determine specific CTL cytotoxicity activity CT26 and BNL cells were used as target at 2×10^5/mL. After incubation for 4 h at 37° C., plates were centrifuged and cell-free supernatants were obtained. Levels of released LDH were evaluated with the LDH Cytotoxicity Detection Kit (Sigma-Aldrich) following the manufacturer's instructions and expressed as percentage of lysis.

[6] = test system: BNL cells; assay: CTL cytotoxicity assay (LDH release), BNL targets; format: cell-based, mouse; settings: splenocytes of treated mice, in vitro
Description: as §1

[7] = Toxicity studies; format: in vivo, BALB/c mice
Description: BALB/c mice untreated or treated with Antartina (5 mg/kg and 50 mg/kg) were used to assess its toxicology profile. […] Aspartate aminotransferase (AST) and alanine aminotransferase (ALT) levels were measured by standard colorimetric methods. Also, healthy mice or mice receiving Antartina were sacrificed to collect liver, spleen, and kidney samples. Paraffin embedded tissues were stained with H & E for pathological analysis.

[8] = test system: CT26 cells; assay: Cell viability assay (MTS, 490 nm); format: cell-based, mouse
Description: Mouse CT26 tumor cell line, an undifferentiated murine colorectal carcinoma (CRC) cell line established from a N-nitroso-N-methylurethan-induced transplantable tumor in BALB/c (H-2d) mice and BNL hepatoma cell line was kindly provided by Prof. Jesús Prieto, University of Navarra, Spain. CT26 and BNL were cultured in complete DMEM (2 mM glutamine, 100 U/ml penicillin, […] streptomycin) and 10% heat-inactivated fetal bovine serum (FBS) and incubated at 37° C. in a 5% CO2 humidified atmosphere.
Antartina was dissolved in 0.1% DMSO and sterile water an injected intraperitoneally (i.p.) at the doses indicated or used for in vitro assays at different concentrations (0.1; 1 and 10 µg/ml). Fluorouracil Rontag® (5-Fu) 500 mg was diluted in saline solution at indicated concentrations (0.1; 1 and 10 µg/ml).
CT26 cells were plated onto 96-well plates at a density of 5×10^3 cells/well and cultured with DMEM or Antartina at different doses (0.1-1-10 […]at different doses (0.1-1-10 DMEM or y of 5×10t indicated concentrations (0.1; 1 and 10 nd 10 ions (0.1; 1 and 10 mental for 4 hour after which the absorbance of each well was read at 490 nm. All assays were performed in quadruplicate, and each assay was repeated twice.

[9] = test system: CT26 cells; assay: Cell cycle analysis (propidium iodide, flow cytometry); format: cell-based, mouse; settings: 48 h and 72 h, Antartina 10 µg/ml
Description: 1×10^6 CT26 cells cultured with DMEM or Antartina were collected washed in PBS and fixed in a mixture of ice-cold 70% (v/v) ethanol, FBS and distill water. Fixed cells were centrifuged and stained with propidium iodide (PI) solution (50 μg/ml PI, 180 U/ml RNAse). DNA content was determined using a FACS Accuri 6 laser flow cytometer (Becton Dickinson).

[10] = test system: CT26 CRC tumors; assay: Subcutaneous CRC model; format: in vivo, BALB/c mice; settings: for microscopic examination of tumor sections (H & E): 10 and 15 days after treatment
Description: Subcutaneous CRC model: CT26 cells were injected at a dose of 5×10^5 cells subcutaneously (s.c.) into the right flank of BALB/c mice (day 0). Tumors were allowed to reach approximately 90 mm^3 in size before treatment was started. Animals were distributed in different groups and then treated with Antartina or 0.1% DMSO in sterile water intraperitoneal (i.p.) (control group, n=6); Antartina (5 or 50 mg/kg i.p., day 8, n=9). Tumor growth was assessed by caliper measurement.
tumor samples from experimental groups were obtained 10 and 15 days after treatment and fixed in 10% phosphate-buffered formalin. Five-micrometer sections from paraffin-embedded tissues were stained with hematoxylin and eosin (H & E) for histologic examination.

In the case of `COc1cc(-c2cc(=O)c3c(O)cc(O[C@@H]4O[C@H](CO)[C@@H](O)[C@H](O)[C@H]4O)cc3o2)cc(OC)c1O` [Antartina, Tricin 7-O-β-D-glucopyranoside], the “proportion of tumor-infiltrating CD4+ and CD8+ T cells vs control” value [1] is reported as “increased proportion”, the “antitumoral activity in vivo against hepatocellular carcinoma” value [2] is reported as “antitumoral activity” and the “treated animals showing a reduction in metastases growth” value ([3]; 5 mg/kg i.p.) is reported as “more than 60%”. The “mean of tumor volume” value ([3]; 5 mg/kg i.p. from day 8, day 18 after inoculation, control 1508±204) was 955±275 mm^3, the survival vs controls ([3]; 5 mg/kg i.p., liver metastatic model, p<0.01) was “superior” and the “re-challenge of cured animals with CT26 cells” value [4] was “rejected in all animals”. The “specific CTL activity against CT26 cells” value [5] was “potent activation of specific cytotoxic T lymphocytes”, the “specific CTL activity against CT26 cells” value ([5]; listed as Antarina) was “potent CTL activity against CT26 cells” and the “CTL activity against BNL cells” value [6] was “no CTL activity”. For the same compound, the “H & E stained tissues (liver, spleen, kidney)” value ([7]; 5 mg/kg and 50 mg/kg) was “no signs of toxicity”, the “body weight gain in both groups” value ([7]; 5 and 50 mg/kg) was “similar” and the “general health of animals” value ([7]; 5 and 50 mg/kg) was “remained healthy”. The “tolerability, clinical and biochemical toxicity (AST, ALT)” value ([7]; 5 and 50 mg/kg, observed more than 30 days) was “well tolerated with no evident signs of clinical and biochemical toxicity”, the CT26 cell survival ([8]; 48 h, highest concentration, p<0.05) was “inhibits CT26 cell survival” and the “cell viability reduced to” value ([8]; 72 h, 10 µg/ml, p<0.001) was ~50%. The cell viability reduced ([8]; 72 h, 1 µg/ml, p<0.05) was “more than 20%”, the cell cycle pattern [9] was “arrested at G2/M phase” and the cell cycle pattern ([9]; listed as Antarina) was “halted CT26 cells at the transition from G2 to M-phase”. For the same compound, the “tumor growth vs saline control” value ([10]; 5 mg/kg i.p., from day 8 three times a week, over 30 days) was “significant inhibition of tumor growth”, the “survival rate vs controls” value ([10]; 5 mg/kg i.p., s.c. CT26 model) was “significantly increased” and the “complete tumor regression, percent of mice” value ([10]; 50 mg/kg i.p.) was “more than 30%”. For the same compound, the tumor volume ([10]; 50 mg/kg i.p. from day 8) was “potent tumor volume reduction”, the “complete tumor regression, mice of group” value ([10]; 50 mg/kg i.p., n=9) was 3/9 and the “animal survival vs saline control” value ([10]; 50 mg/kg i.p., p<0.01) was “significantly increased”. The “microscopic examination of tumor sections (H & E)” value ([10]; 50 mg/kg i.p.) was “extensive areas of necrosis and marked mononuclear cells infiltration” and the “microscopic examination of tumor sections (H & E)” value ([10]; 50 mg/kg i.p., listed as Antarina) was “intense mononuclear infiltrate and extensive areas of necrosis”.
